Tested on: Cricetinae gen. sp.
Assay: In vivo activity, with an ED50 inlowering cholesterol levels in the cholesterol-fed hamster
Type: functional, Cricetulus griseus

Question: CCCCCCCN(CCCCCSc1nc(-c2ccccc2)c(-c2ccccc2)[nH]1)C(=O)Nc1ccc(F)cc1F [LECIMIBIDE] was tested. Which ED50 did it give?
Answer: The ED50 was 3 mg/kg.

Source: ChEMBL document CHEMBL1128039, “Acyl CoA:cholesterol acyltransferase (ACAT) inhibitors: ureas bearing two heterocyclic head groups” (Bioorg Med Chem Lett, 1995)
